Results from publication PMC7756445, “A Novel Prodrug of a nNOS Inhibitor with Improved Pharmacokinetic Potential” (Chemmedchem, 2020).
Where two headings read alike, the source gives them in different places.

Key:
[1] = Stability in human plasma; assay type: in vitro ADME; conditions: 37 °C
Method: Finally, the stability in human plasma was assessed.
Human plasma was purchased from 3H Biomedical (Uppsala, Sweden). For the determination of enzymatic stability in human plasma, the reactions were initiated by adding 50 μL of compound stock solution to 450 μL of pre‐heated plasma, and incubated at 37±0.5 °C. At appropriate time intervals, 50 μL of the plasma were taken and deproteinized by the addition of 450 μL of CH3CN. After mixing and centrifugation for 10 min at 10 000 rpm, the supernatant (5 μL) was analyzed by HPLC, adopting the same chromatographic conditions described for chemical stability evaluations. ^[48]

[2] = Log D and log P by shake-flask method; assay type: physicochemical; conditions: n-octanol/aqueous buffer
Text: The herein presented amidoxime 2 was designed as prodrug of the amidine 1 to improve membrane permeability and oral bioavailability. In this context, the deepening of the physicochemical properties is essential to obtain a favorable pharmacological profile. Therefore, we investigated the lipophilicity, the passive permeation through the human GI tract through the PAMPA assays, and the chemical and enzymatic stabilities in simulated GI fluids and plasma. […] In this study, the lipophilicity of our compounds was determined by means of the “shake‐flask method” and compared to the corresponding values calculated by the software. ^[43] However, for ionizable compounds, the distribution coefficient (log D) should be used instead of log P in the pH range where ionic species exist. ^[44] In this study, log P and log D were calculated (Table 1).
The column was a Waters Symmetry RP‐C18 column (4.6×150 mm, 5 μm). The mobile phase was a mixture of TFA 0.01 M/ACN/(MeOH/THF 90 : 10) 20/52/28 and the flow rate was 0.7 mL/min. The UV detector was set at a length of 254 nm.
Both n‐octanol and aqueous buffer (pH 1.4, 6.5 and 9.4) solutions were saturated of each other. 2 mg of tested compound was dissolved in 500 μL of organic phase and mixed with an equal volume of aqueous buffer by repeated inversions of up to 200 times for 5 min and then allowed to stand for 30 min for the phases to fully separate. Thereafter, the respective phases were analyzed by HPLC.

PAMPA-BBB assay = assay: PAMPA-BBB assay; set-up: Papp at 18 h: dose or concentration left out as unconfirmed; conditions: porcine polar brain lipid, 18 h
Method: The relative passive transcellular diffusion of compounds, expressed as permeability coefficient (Pe), was determined with a permeability equation. ^[45] The permeabilities of 1, 2, and 1400 W were determined at pH 5.0, 6.5, and 7.4 to mimic the physiological conditions of the GI tract (Table 1). […] As the new prodrug was designed for the potential treatment of neurodegenerative diseases, an important parameter is its capability to cross the BBB.
PAMPA‐BBB assays were performed following the same procedure described above for PAMPA‐GI. Briefly, an artificial membrane consisting in a porcine polar brain lipid extract mixture (purchased from Avantis Polar Lipids, Alabaster, AL, USA) and an incubation time of 18 h were adopted as experimental conditions.

B5 and B5R = target: T1, B5 and B5R (Homo sapiens, UniProt O43169+P00387); assay: Bioconversion control experiment without mARC; assay type: in vitro ADME; conditions: B5 and B5R only, no mARC; NADH assay
T1 sequence (O43169 16-150): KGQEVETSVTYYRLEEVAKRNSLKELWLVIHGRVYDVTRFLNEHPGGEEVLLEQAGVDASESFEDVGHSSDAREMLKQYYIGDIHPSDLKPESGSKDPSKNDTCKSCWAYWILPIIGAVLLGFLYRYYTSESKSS
T1 sequence (P00387 24-301 limits assumed): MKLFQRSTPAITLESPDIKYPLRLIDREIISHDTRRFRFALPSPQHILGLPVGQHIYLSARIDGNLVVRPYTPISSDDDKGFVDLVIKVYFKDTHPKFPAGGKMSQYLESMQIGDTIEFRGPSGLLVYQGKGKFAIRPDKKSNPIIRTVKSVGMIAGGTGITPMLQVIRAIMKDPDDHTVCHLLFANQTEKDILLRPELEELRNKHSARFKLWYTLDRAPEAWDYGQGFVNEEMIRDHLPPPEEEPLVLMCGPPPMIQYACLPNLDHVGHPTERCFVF

pepsin, pancreatin = assay: Enzymatic stability in simulated fluids with pepsin or pancreatin; assay type: in vitro ADME; conditions: 37 °C, 2 h
Method: (§1) The effects of gastrointestinal digestion are important parameters to be taken into consideration in the determination of bioavailability and bioactivity of new compounds. In particular, the luminal instability, due to the pH or enzymatic degradation, may compromise the transmucosal transport of the prodrug designed for permeability enhancement. Therefore, in this study the chemical stability of compound 2 was assessed to exclude any undesirable degradation at acid and physiological environments. Hydrochloric acid buffer (pH 2.0) as a nonenzymatic simulated gastric fluid (SGF), and phosphate buffer (pH 7.4) as nonenzymatic simulated intestinal fluid (SIF) were employed to evaluate the chemical stability. […] For chemical stability, a 0.01 M hydrochloric acid buffer (pH 1.3) and 0.01 M phosphate buffer (pH 7.4) were used. To assess enzymatic stability, the same hydrochloric buffer with and without pepsin (10 or 40 mg/mL) and phosphate buffer with and without pancreatin (10 or 40 mg/mL) were used. […] The mixture was vortexed and centrifuged at 2 °C and 10 000 rpm, Swing‐out Rotor, for 10 min, and the content of tested compound in the supernatant was analyzed by HPLC. Experiments were run in triplicate and the mean values of the rate constants were calculated.

[3] = Chemical stability in nonenzymatic simulated gastric and intestinal fluids; assay type: physicochemical; conditions: 2 h
Method: as §1

- stability in human plasma [1]: stable
- logD ([2]; pH 1.4, n-octanol/aqueous buffer pH 1.4, mean ± SD of three, read-out: log D 1.4): -0.16
- logD ([2]; pH 1.4, pH 1.4 to 9.4, range stated in text, read-out: log D values over the pH values tested): -0.16 to 0.39
- logD ([2]; pH 6.5, n-octanol/aqueous buffer pH 6.5, mean ± SD of three, read-out: log D 6.5): 0.29
- logD ([2]; pH 9.4, n-octanol/aqueous buffer pH 9.4, mean ± SD of three, read-out: log D 9.4): 0.39
- logP ([2]; shake-flask, as free amine, mean ± SD of three): 3.24
- Papp at 18 h (PAMPA-BBB assay; pig, PAMPA, PAMPA-BBB permeability Pe): > 40 nm/s
- conversion to the amidine 1 in control experiment (B5 and B5R): no conversion
- enzymatic stability in SGF with pepsin (pepsin, pancreatin; pH 1.3, pepsin 10 or 40 mg/mL): stable
- enzymatic stability in SIF with pancreatin (pepsin, pancreatin; pH 7.4, pancreatin 10 or 40 mg/mL): stable
- chemical stability in nonenzymatic simulated gastric fluid (SGF) ([3]; hydrochloric acid buffer pH 2.0 (method: pH 1.3), 37 °C): stable
- chemical stability in nonenzymatic simulated intestinal fluid (SIF) ([3]; phosphate buffer pH 7.4, 37 °C): stable
Structure (SMILES): C/C(=N\O)NC(c1ccccc1)c1ccccc1 [Compound 2, (1E)‐N‐(diphenylmethyl)‐N′‐hydroxyethanimidamide]
- PAMPA-BBB permeation class (PAMPA-BBB assay): CNS+ (CNS+ (indicative of high BBB permeation): Pe >4.0)
